Experimental data reported in ChEMBL document CHEMBL3994585, “Synthesis of α-santonin derivatives for diminutive effect on T and B-cell proliferation and their structure activity relationships” (Eur J Med Chem, 2017).

How the values were obtained:
T-cell [1] = experiment: Immunosuppressive activity in Balb/c mouse T cells assessed as ConA-induced cell proliferation at 100 uM after 48 hrs by MTT assay relative to control; format: functional
B-cell [2] = experiment: Cytotoxicity against Balb/c mouse B cells assessed as reduction in cell proliferation at 100 uM after 48 hrs by MTT assay; format: cell-based
T-cell [3] = experiment: Immunosuppressive activity in Balb/c mouse T cells assessed as ConA-induced cell proliferation at 10 uM after 48 hrs by MTT assay relative to control; format: functional
T-cell [4] = experiment: Cytotoxicity against Balb/c mouse T cells assessed as reduction in cell proliferation at 1 uM after 48 hrs by MTT assay; format: cell-based
B-cell [5] = experiment: Immunosuppressive activity in Balb/c mouse B cells assessed as LPS-induced cell proliferation at 100 uM after 48 hrs by MTT assay relative to control; format: functional
[6] = biological target: Tumor necrosis factor (Homo sapiens) (UniProt P01375); experiment: Inhibition of TNFalpha (unknown origin) at 5 uM relative to control
Sequence of Tumor necrosis factor (Homo sapiens) (P01375 whole entry): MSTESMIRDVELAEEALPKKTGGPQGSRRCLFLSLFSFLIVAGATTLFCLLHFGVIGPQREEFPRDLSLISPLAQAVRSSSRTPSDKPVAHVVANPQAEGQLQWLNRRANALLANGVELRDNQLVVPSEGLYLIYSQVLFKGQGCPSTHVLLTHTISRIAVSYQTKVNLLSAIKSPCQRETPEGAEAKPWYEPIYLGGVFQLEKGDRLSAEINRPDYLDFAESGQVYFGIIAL

B-cell [7] = experiment: Cytotoxicity against Balb/c mouse B cells assessed as reduction in cell proliferation at 10 uM after 48 hrs by MTT assay; format: cell-based
T-cell [8] = experiment: Cytotoxicity against Balb/c mouse T cells assessed as reduction in cell proliferation at 10 uM after 48 hrs by MTT assay; format: cell-based
B-cell [9] = experiment: Cytotoxicity against Balb/c mouse B cells assessed as reduction in cell proliferation at 1 uM after 48 hrs by MTT assay; format: cell-based
[10] = biological target: Tumor necrosis factor (Homo sapiens) (UniProt P01375); experiment: Inhibition of TNFalpha (unknown origin) at 10 uM relative to control
[11] = biological target: Tumor necrosis factor (Homo sapiens) (UniProt P01375); experiment: Inhibition of TNFalpha (unknown origin) at 1 uM relative to control
B-cell [12] = experiment: Immunosuppressive activity in Balb/c mouse B cells assessed as LPS-induced cell proliferation at 10 uM after 48 hrs by MTT assay relative to control; format: functional
B-cell [13] = experiment: Immunosuppressive activity in Balb/c mouse B cells assessed as LPS-induced cell proliferation at 1 uM after 48 hrs by MTT assay relative to control; format: functional
T-cell [14] = experiment: Immunosuppressive activity in Balb/c mouse T cells assessed as ConA-induced cell proliferation at 1 uM after 48 hrs by MTT assay relative to control; format: functional
T-cell [15] = experiment: Cytotoxicity against Balb/c mouse T cells assessed as reduction in cell proliferation at 100 uM after 48 hrs by MTT assay; format: cell-based
T-cell [16] = experiment: Immunostimulant activity in Balb/c mouse T cells assessed as ConA-induced cell proliferation at 1 uM after 48 hrs by MTT assay relative to control; format: ADME, cell-based
T-cell [17] = experiment: Immunostimulant activity in Balb/c mouse T cells assessed as ConA-induced cell proliferation at 100 uM after 48 hrs by MTT assay relative to control; format: ADME, cell-based
B-cell [18] = experiment: Immunostimulant activity in Balb/c mouse B cells assessed as LPS-induced cell proliferation at 10 uM after 48 hrs by MTT assay relative to control; format: ADME, cell-based
B-cell [19] = experiment: Immunostimulant activity in Balb/c mouse B cells assessed as LPS-induced cell proliferation at 100 uM after 48 hrs by MTT assay relative to control; format: ADME, cell-based
T-cell [20] = experiment: Effect on ConA-induced Balb/c mouse T cell proliferation at 10 uM after 48 hrs by MTT assay relative to control; format: functional
T-cell [21] = experiment: Immunostimulant activity in Balb/c mouse T cells assessed as ConA-induced cell proliferation at 10 uM after 48 hrs by MTT assay relative to control; format: ADME, cell-based
B-cell [22] = experiment: Immunostimulant activity in Balb/c mouse B cells assessed as LPS-induced cell proliferation at 1 uM after 48 hrs by MTT assay relative to control; format: ADME, cell-based
B-cell [23] = experiment: Effect on LPS-induced Balb/c mouse B cell proliferation at 100 uM after 48 hrs by MTT assay relative to control; format: functional
[24] = biological target: Tumor necrosis factor (Homo sapiens) (UniProt P01375); experiment: Inhibition of TNFalpha (unknown origin) at 10 uM relative to dexamethasone

**Q.** With `CC(=O)OC1=C(C)C2=C3OC(=O)C(C)=C3CC[C@@]2(C)CC1` as the compound, how does the Activity (T-cell [1]) read?
**A.** -34.55%

**Q.** What about the Activity (B-cell [2]) of the same compound?
**A.** Toxic

**Q.** What about the Activity (T-cell [3]) of the same compound?
**A.** -38.23%

**Q.** And the Activity (T-cell [4])?
**A.** Toxic

**Q.** What about the Activity (B-cell [5]) of the same compound?
**A.** -45.6%

**Q.** And the inhibition [6]?
**A.** 24.1%

**Q.** What about the Activity (B-cell [7]) of the same compound?
**A.** Toxic

**Q.** And the Activity (T-cell [8])?
**A.** Toxic

**Q.** And the Activity (B-cell [9])?
**A.** Toxic

**Q.** What about the inhibition [10] of the same compound?
**A.** 44.9%

**Q.** And the inhibition [11]?
**A.** 3.03%

**Q.** And the Activity (B-cell [12])?
**A.** -42.3%

**Q.** What about the Activity (B-cell [13]) of the same compound?
**A.** -42.3%

**Q.** What about the Activity (T-cell [14]) of the same compound?
**A.** -30.88%

**Q.** What about the Activity (T-cell [15]) of the same compound?
**A.** Toxic

**Q.** What does the source list for `Cc1cc(O)c(C)c2c1CC[C@@H]([C@@H](C)C(=O)Nc1ccc(CC#N)cc1)C2`?
**A.** Activity (T-cell [1]): -7.35%; Activity (B-cell [2]): Toxic; Activity (T-cell [3]): -30.14%; Activity (T-cell [4]): Toxic; Activity (B-cell [5]): -46.7%; inhibition [6]: 4.5%; Activity (B-cell [7]): Toxic; Activity (T-cell [8]): Toxic; Activity (B-cell [9]): Toxic; inhibition [10]: 17.1%; inhibition [11]: Below limit of detection; Activity (B-cell [12]): -39.56%; Activity (B-cell [13]): -42.3%; Activity (T-cell [14]): -36.02%; Activity (T-cell [15]): Toxic

**Q.** How did the Activity (B-cell [2]) turn out when `COC(=O)[C@H](C)C1=Cc2c(C)c(OC)cc(C)c2CC1` was run?
**A.** Toxic

**Q.** And the Activity (T-cell [16])?
**A.** 11.34%

**Q.** What about the Activity (T-cell [4]) of the same compound?
**A.** Toxic

**Q.** What about the Activity (T-cell [17]) of the same compound?
**A.** 22.68%

**Q.** And the Activity (B-cell [7])?
**A.** Toxic

**Q.** And the Activity (T-cell [8])?
**A.** Toxic

**Q.** What about the Activity (B-cell [9]) of the same compound?
**A.** Toxic

**Q.** And the Activity (B-cell [18])?
**A.** 23%

**Q.** What about the Activity (B-cell [19]) of the same compound?
**A.** 14.15%

**Q.** And the Activity (B-cell [13])?
**A.** -1.76%

**Q.** What about the Activity (T-cell [20]) of the same compound?
**A.** 0%

**Q.** What about the Activity (T-cell [15]) of the same compound?
**A.** Toxic

**Q.** For `CC1=C2[C@H]3OC(=O)[C@@H](C)[C@@H]3CC[C@@]2(C)C=CC1=O` [SANTONIN], which Activity (T-cell [1]) is on record?
**A.** -5.16%

**Q.** What about the Activity (B-cell [2]) of the same compound?
**A.** Non-Toxic

**Q.** And the Activity (T-cell [21])?
**A.** 4.48%

**Q.** What about the Activity (B-cell [22]) of the same compound?
**A.** 20.35%

**Q.** And the Activity (T-cell [4])?
**A.** Non-Toxic

**Q.** And the Activity (B-cell [5])?
**A.** -33.62%

**Q.** What about the inhibition [6] of the same compound?
**A.** 6.2%

**Q.** What about the Activity (B-cell [7]) of the same compound?
**A.** Non-Toxic

**Q.** What about the Activity (T-cell [8]) of the same compound?
**A.** Non-Toxic

**Q.** And the Activity (B-cell [9])?
**A.** Non-Toxic

**Q.** What about the inhibition [10] of the same compound?
**A.** 19%

**Q.** And the inhibition [11]?
**A.** Below limit of detection

**Q.** And the Activity (B-cell [12])?
**A.** -24.17%

**Q.** And the Activity (T-cell [14])?
**A.** -36.02%

**Q.** What about the Activity (T-cell [15]) of the same compound?
**A.** Non-Toxic

**Q.** How did the inhibition [11] turn out when `C[C@@H]1C[C@H]2[C@@H]3CCC4=CC(=O)C=C[C@]4(C)[C@@]3(F)[C@@H](O)C[C@]2(C)[C@@]1(O)C(=O)CO` was run?
**A.** 49.9%

**Q.** Which results are given for `CCOC(=O)[C@H](C)C1=Cc2c(C)c(O)cc(C)c2CC1`?
**A.** Activity (B-cell [2]): Toxic; Activity (T-cell [16]): 11.34%; Activity (T-cell [4]): Toxic; Activity (T-cell [17]): 22.68%; Activity (B-cell [7]): Toxic; Activity (T-cell [8]): Toxic; Activity (B-cell [9]): Toxic; Activity (B-cell [18]): 23%; Activity (B-cell [19]): 14.15%; Activity (B-cell [13]): -1.76%; Activity (T-cell [20]): 0%; Activity (T-cell [15]): Toxic

**Q.** `Cc1c(O)c([N+](=O)[O-])c(C)c2c1[C@@H]1OC(=O)[C@@H](C)[C@@H]1CC2` was tested. Which Activity (B-cell [2]) did it give?
**A.** Toxic

**Q.** What about the Activity (T-cell [3]) of the same compound?
**A.** -1.03%

**Q.** What about the Activity (T-cell [16]) of the same compound?
**A.** 13.4%

**Q.** And the Activity (T-cell [4])?
**A.** Toxic

**Q.** And the Activity (T-cell [17])?
**A.** 36.08%

**Q.** What about the Activity (B-cell [7]) of the same compound?
**A.** Toxic

**Q.** What about the Activity (T-cell [8]) of the same compound?
**A.** Toxic

**Q.** And the Activity (B-cell [9])?
**A.** Toxic

**Q.** And the Activity (B-cell [12])?
**A.** -30.08%

**Q.** And the Activity (B-cell [23])?
**A.** 0%

**Q.** What about the Activity (B-cell [13]) of the same compound?
**A.** -10.61%

**Q.** And the Activity (T-cell [15])?
**A.** Toxic

**Q.** For `CC(=O)Oc1cc(C)c2c(c1C)C1OC(OC(C)=O)C(C)C1CC2` (stereo not drawn), which Activity (T-cell [1]) is on record?
**A.** -43.38%

**Q.** What about the Activity (B-cell [2]) of the same compound?
**A.** Toxic

**Q.** What about the Activity (T-cell [3]) of the same compound?
**A.** -26.47%

**Q.** And the Activity (T-cell [4])?
**A.** Toxic

**Q.** And the Activity (B-cell [5])?
**A.** -45.05%

**Q.** And the inhibition [6]?
**A.** 9.9%

**Q.** What about the Activity (B-cell [7]) of the same compound?
**A.** Toxic

**Q.** What about the Activity (T-cell [8]) of the same compound?
**A.** Toxic

**Q.** And the Activity (B-cell [9])?
**A.** Toxic

**Q.** What about the inhibition [10] of the same compound?
**A.** 26%

**Q.** What about the inhibition [11] of the same compound?
**A.** 0.34%

**Q.** And the Activity (B-cell [12])?
**A.** -28.02%

**Q.** And the inhibition [24]?
**A.** 50%

**Q.** What about the Activity (B-cell [13]) of the same compound?
**A.** -50%

**Q.** What about the Activity (T-cell [14]) of the same compound?
**A.** -38.23%

**Q.** And the Activity (T-cell [15])?
**A.** Toxic
